Data set [1] relates to Obese (ob/ob) mouse. The experiment in a line: In vivo assay of reduction of food intake.

Structures can show the parent of a compound that is named as a salt.

Regarding `Cl.O=S(=O)(Nc1ccc(N2CCCNCC2)cc1NS(=O)(=O)c1ccccc1)c1ccccc1` [Example 27, N-{4-(homopiperazinyl)-2-[(phenylsulfonyl)amino]phenyl}benzenesulfonamide hydrochloride], the “Reduction of Food Intake (%) po administration” value in data set [1] (Dose 50 mg/Kg) worked out at 28%. In the case of `CN1CCCN(c2ccc(S(=O)(=O)Nc3ccccc3)cc2N)CC1` (as salt: hydrochloride) [Example 92, 3-Amino-4-(4-methyl-1,4-diazepan-1-yl)-N-phenylbenzenesulfonamide], the melting point lay in the range of 84 to 85 °C. In the case of `CCN(c1cc(N2CCCNCC2)ccc1NS(=O)(=O)c1ccccc1)S(=O)(=O)c1ccccc1.Cl` [Example 29, N-{4-(1,4-diazepan-1-yl)-2-[ethyl(phenylsulfonyl)amino]phenyl}benzenesulfonamide hydrochloride], the “Reduction of Food Intake (%) po administration” value in data set [1] (Dose 100 mg/Kg) came to 60%.

As a reminder, the melting point is the temperature of the solid-liquid transition.

These data come from patent publication US7173035B2, “Arylsulfonamide compounds” (Biovitrum AB, priority 2001, dated 2007).
